Experiment [1] is filed under the species Homo sapiens. In words: Vasoconstrictor activity in human relative to betamethasone valerate. The format is functional, organism-based.
The species named for experiment [2] is Homo sapiens. Description: Skin stripping in human by stripped-skin assay relative to betamethasone valerate. Type of experiment: functional, organism-based.

Here are results for 5 molecules from ChEMBL document CHEMBL3272178, “Prepartion of 16alpha-alkoxy and 16alpha-acyloxy derivatives of 21-chloro-17-acyloxy corticosteroids and determination of their vasoconstrictor activities in humans” (J Med Chem, 1976).

Each structure is given as a SMILES string. Calls of active or inactive are those of the source. No cut-off for these calls is given here.

`CCCCC(=O)O[C@]1(C(=O)CCl)[C@H](OC)C[C@H]2[C@@H]3CCC4=CC(=O)CC[C@]4(C)[C@@]3(F)[C@@H](O)C[C@@]21C`: the result in the experiment listed under Homo sapiens [1] and in the experiment filed under Homo sapiens [2] was inactive.
For `CCO[C@@H]1C[C@H]2[C@@H]3CCC4=CC(=O)CC[C@]4(C)[C@@]3(F)[C@@H](O)C[C@]2(C)[C@@]1(OC(C)=O)C(=O)CCl`, the outcome in the experiment listed under Homo sapiens [1] and in the experiment filed under Homo sapiens [2] was inactive.
`CCC(=O)O[C@]1(C(=O)CCl)[C@H](OC(C)=O)C[C@H]2[C@@H]3CCC4=CC(=O)C=C[C@]4(C)[C@@]3(F)[C@@H](O)C[C@@]21C`: the outcome in the experiment filed under Homo sapiens [1] and in the experiment filed under Homo sapiens [2] was inactive.
Take `CC(=O)O[C@@H]1C[C@H]2[C@@H]3CCC4=CC(=O)C=C[C@]4(C)[C@@]3(F)[C@@H](O)C[C@]2(C)[C@@]1(OC(C)=O)C(=O)CCl`: the outcome in the experiment listed under Homo sapiens [1] and in the experiment listed under Homo sapiens [2] was inactive.
As for `CO[C@@H]1C[C@H]2[C@@H]3CCC4=CC(=O)CC[C@]4(C)[C@@]3(F)[C@@H](O)C[C@]2(C)[C@@]1(OC(C)=O)C(=O)CCl`, the result in the experiment filed under Homo sapiens [1] and in the experiment listed under Homo sapiens [2] was inactive.
